Experimental data reported in ChEMBL document CHEMBL5360547 (Eur J Med Chem, 2023).
The source made the active and inactive calls. The calls are words filed in the database; no cut-off is given here.

Assays:
Mus musculus [1] = test: Neuroprotective activity against middle cerebral artery occlusion-induced brain infarction C57BL/6 mouse model assessed as reduction in cerebral infarct volume at 20 mg/kg, ip and measured after 24 hrs by TTC staining based assay; format: functional, organism-based
Cortical neurone [2] = test: Neuroprotective activity against oxygen glucose deprivation induced ischemic stroke model in primary C57BL/6J E14-17 mouse Cortical neurons assessed as increase in cell viability at 0.5 to 20 uM incubated for 24 hrs by CCK-8 assay; format: functional, cell-based; settings: dose 0.5-20 µM
SH-SY5Y [3] = test: Neuroprotective activity against oxygen glucose deprivation induced ischemic stroke model in human SH-SY5Y cells assessed as cell viability at 20 uM incubated for 24 hrs by CCK-8 assay; format: functional; settings: read-out: Activity
SH-SY5Y [4] = test: Neuroprotective activity against oxygen glucose deprivation induced ischemic stroke model in human SH-SY5Y cells assessed as cell viability at 2 uM incubated for 24 hrs by CCK-8 assay; format: functional; settings: read-out: Activity
Cortical neurone [5] = test: Neuroprotective activity against oxygen glucose deprivation induced ischemic stroke model in primary C57BL/6J E14-17 mouse Cortical neurons assessed as increase in cell viability at 0.1 to 20 uM incubated for 24 hrs by CCK-8 assay; format: functional, cell-based; settings: dose 0.1-20 µM
Cortical neurone [6] = test: Cytotoxicity against primary C57BL/6J E14-17 mouse Cortical neuron assessed as decrease in cell viability at 0.1 to 20 uM incubated for 24 hrs by CCK-8 assay; format: toxicity, cell-based; settings: dose 0.1-20 µM
in vivo = settings: C57BL/6, mouse, ip, 20 mg/kg
[7] = Toxicity in middle cerebral artery occlusion-induced brain infarction C57BL/6 mouse model assessed as survival rate at 10 mg/kg, ip and measured after 24 hrs; format: organism-based; settings: in vivo
Mus musculus [8] = test: Neuroprotective activity against middle cerebral artery occlusion-induced brain infarction C57BL/6 mouse model assessed as decrease in neurological deficit score at 10 mg/kg, ip and measured after 24 hrs by animal behavioral study relative to control; format: functional
Cortical neurone [9] = test: Cytotoxicity against primary C57BL/6J E14-17 mouse Cortical neuron assessed as decrease in cell viability upto 50 uM incubated for 24 hrs by CCK-8 assay; format: toxicity, cell-based
Cortical neurone [10] = test: Cytotoxicity against primary C57BL/6J E14-17 mouse Cortical neuron assessed as decrease in cell viability at 10 to 20 uM incubated for 24 hrs by CCK-8 assay; format: toxicity, cell-based; settings: dose 10-20 µM
Cortical neurone [11] = test: Cytotoxicity against primary C57BL/6J E14-17 mouse Cortical neuron assessed as decrease in cell viability at 0.1 to 5 uM incubated for 24 hrs by CCK-8 assay; format: toxicity, cell-based; settings: dose 0.1-5 µM
Cortical neurone [12] = test: Neuroprotective activity against oxygen glucose deprivation induced ischemic stroke model in primary C57BL/6J E14-17 mouse Cortical neurons assessed as increase in cell viability at 1 uM incubated for 24 hrs by CCK-8 assay (Rvb= 57.43 +/- 2.54 %); format: functional; settings: 24 h, 1 µM
Cortical neurone [13] = test: Neuroprotective activity against oxygen glucose deprivation induced ischemic stroke model in primary C57BL/6J E14-17 mouse Cortical neurons assessed as increase in cell viability at 10 uM incubated for 24 hrs by CCK-8 assay (Rvb= 57.43 +/- 2.54 %); format: functional; settings: 24 h, 10 µM
Cortical neurone [14] = test: Cytotoxicity against primary C57BL/6J E14-17 mouse Cortical neuron assessed as decrease in cell viability at 10 uM incubated for 24 hrs by CCK-8 assay relative to control; format: toxicity, cell-based
Cortical neurone [15] = test: Cytotoxicity against primary C57BL/6J E14-17 mouse Cortical neuron assessed as decrease in cell viability at 1 uM incubated for 24 hrs by CCK-8 assay relative to control; format: toxicity, cell-based
Cortical neurone [16] = test: Neuroprotective activity against oxygen glucose deprivation induced ischemic stroke model in primary C57BL/6J E14-17 mouse Cortical neurons assessed as increase in cell viability at 5 uM incubated for 24 hrs by CCK-8 assay (Rvb= 57.43 +/- 2.54 %); format: functional

SMILES: CCCCCCCCN(C)[C@H]1CC[C@@H](c2ccc(Cl)c(Cl)c2)c2ccccc21 [listing 1 of 2 here]
- Activity (Mus musculus [1]): Active
- Activity (Cortical neurone [2]): Active

SMILES: O=C(/C=C/c1ccc(O)c2c1[C@H](C(=O)O[C@H](Cc1ccc(O)c(O)c1)C(=O)O)[C@@H](c1ccc(O)c(O)c1)O2)O[C@H](Cc1ccc(O)c(O)c1)C(=O)O
- viability at 20 µM (SH-SY5Y [3]): 78.1%
- viability at 2 µM (SH-SY5Y [4]): 73.4%

SMILES: NCCc1c[nH]c2ccc(O)cc12 [SEROTONIN]
- Activity (Cortical neurone [5]): inactive
- Activity (Cortical neurone [6]): Non-Toxic

SMILES: CCCCCCCCN(C)[C@H]1CC[C@@H](c2ccc(Cl)c(Cl)c2)c2ccccc21 [listing 2 of 2 here]
- mortality at 24 h (in vivo): 35.7%
- survival at 24 h [7]: 100%
- Activity (Mus musculus [8]): 1.5
- Activity (Cortical neurone [9]): Non-Toxic

SMILES: CN[C@H]1CC[C@@H](c2ccc(Cl)c(Cl)c2)c2ccccc21 [SERTRALINE]
- viability at 20 µM (SH-SY5Y [3]): 30.5%
- Activity (Cortical neurone [10]): Toxic
- Activity (Cortical neurone [11]): Non-Toxic
- Activity (Cortical neurone [12]): 67.21%
- Activity (Cortical neurone [13]): 58.85%
- Activity (Cortical neurone [9]): Non-Toxic
- Activity (Cortical neurone [14]): 94.25%
- Activity (Cortical neurone [15]): 99.08%
- Activity (Cortical neurone [16]): 65.9%
- viability at 2 µM (SH-SY5Y [4]): 81.9%
